These results are taken from ChEMBL document CHEMBL1152899, “Synthesis and preliminary screening of novel indole-3-methanamines as 5-HT4 receptor ligands” (Eur J Med Chem, 2009).

The target in assay [1] is T1, 5-hydroxytryptamine receptor 4 (Homo sapiens, UniProt Q13639). Kind of assay: Displacement of [3H]GR-113808 from human 5HT4b receptor expressed in COS7 cell membrane at 1 uM by scintillation counting. Type of assay: cell membranes. Particulars: COS-7. (Displacement assays read how much labelled ligand stays bound in the presence of the test substance.)
T1 sequence (Q13639 whole entry): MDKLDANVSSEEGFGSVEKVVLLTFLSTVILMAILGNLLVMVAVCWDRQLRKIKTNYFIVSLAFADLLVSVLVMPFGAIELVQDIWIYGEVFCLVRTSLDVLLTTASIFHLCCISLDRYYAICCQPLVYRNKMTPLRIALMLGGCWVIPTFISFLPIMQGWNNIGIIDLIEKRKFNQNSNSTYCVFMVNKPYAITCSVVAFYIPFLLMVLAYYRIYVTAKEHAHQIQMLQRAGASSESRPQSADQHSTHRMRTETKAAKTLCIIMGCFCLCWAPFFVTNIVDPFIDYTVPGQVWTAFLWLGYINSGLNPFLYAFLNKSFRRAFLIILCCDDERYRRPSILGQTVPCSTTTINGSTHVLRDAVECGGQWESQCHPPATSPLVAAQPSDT
The target in assay [2] is T1, 5-hydroxytryptamine receptor 4. The assay is described as follows: Displacement of [3H]GR-113808 from human 5HT4b receptor expressed in COS7 cell membrane by scintillation counting.
The target is the same in assay [3]. Kind of assay: Displacement of [3H]GR-113808 from human recombinant 5HT4b receptor expressed in HEK293 cells by scintillation counting. Type of assay: cell-based.

The structures appear in SMILES notation. The source made the active and inactive calls. The rule behind the calls is not given here.

What is called Ki is a dissociation constant, usually derived from enzyme kinetics or from competition with a known ligand. Turning to `COc1ccc2[nH]cc(CNN3CCOCC3)c2c1`, the result in assay [1] was Active. Besides, the affinity in assay [2] corresponds to a Ki of 0.145 µM.
Regarding `COc1ccc2[nH]cc(CCN)c2c1` [5-METHOXYTRYPTAMINE], the Ki in assay [2] was 0.0269 µM; in assay [3] it was 0.245 µM.
